Active and inactive are the calls of the source.
How the values were obtained:
[1] = biological target: Bcl-2-like protein 10 (Homo sapiens, UniProt Q9HD36); experiment: displacers of TR3 peptide from Bcl-B, primary screen, selectivity assay for Bfl-1 inhibitor project, biochemical, fluorescence polarization, FITC-TR3 peptide (AID 748);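 also: fluorescence polarization from a fluorescein-labelled TR3 peptide binding purified Bcl-B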
[2] = biological target: Serine/threonine-protein phosphatase PP1-alpha catalytic subunit (Homo sapiens, UniProt P62136); experiment: PP1 phosphatase inhibitors, dose response, biochemical, fluorescence (AID 2403);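 also: phosphatase turnover of OMFP into fluorescent 3-O-methylfluorescein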
Sequence of Serine/threonine-protein phosphatase PP1-alpha catalytic subunit (P62136 whole entry): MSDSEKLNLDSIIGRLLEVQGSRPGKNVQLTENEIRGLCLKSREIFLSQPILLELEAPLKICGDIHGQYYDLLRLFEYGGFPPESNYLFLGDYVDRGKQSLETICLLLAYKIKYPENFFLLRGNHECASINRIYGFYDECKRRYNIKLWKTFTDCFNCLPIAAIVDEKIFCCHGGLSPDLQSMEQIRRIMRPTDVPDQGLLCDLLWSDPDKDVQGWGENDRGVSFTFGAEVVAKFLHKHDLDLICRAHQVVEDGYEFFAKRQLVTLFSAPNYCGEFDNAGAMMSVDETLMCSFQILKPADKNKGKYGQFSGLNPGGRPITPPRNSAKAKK

[3] = microbe, parasite or virus in culture; type: functional; settings: Mycobacterium tuberculosis
[4] = biological target: Serine/threonine-protein phosphatase (Homo sapiens, UniProt Q9BPW0); experiment: Counterscreen for inhibitors of PP1: fluorescence-based biochemical high throughput dose response assay to identify inhibitors of Protein Phosphatase 5 (PP5). [Related pubchem assays: 2034 (Summary (PP5 inhibitors)), 1987 (PP5 inhibitors in singlate), 2235 (PP1 inhibitors in singlate)]
Sequence of Serine/threonine-protein phosphatase (Q9BPW0 whole entry): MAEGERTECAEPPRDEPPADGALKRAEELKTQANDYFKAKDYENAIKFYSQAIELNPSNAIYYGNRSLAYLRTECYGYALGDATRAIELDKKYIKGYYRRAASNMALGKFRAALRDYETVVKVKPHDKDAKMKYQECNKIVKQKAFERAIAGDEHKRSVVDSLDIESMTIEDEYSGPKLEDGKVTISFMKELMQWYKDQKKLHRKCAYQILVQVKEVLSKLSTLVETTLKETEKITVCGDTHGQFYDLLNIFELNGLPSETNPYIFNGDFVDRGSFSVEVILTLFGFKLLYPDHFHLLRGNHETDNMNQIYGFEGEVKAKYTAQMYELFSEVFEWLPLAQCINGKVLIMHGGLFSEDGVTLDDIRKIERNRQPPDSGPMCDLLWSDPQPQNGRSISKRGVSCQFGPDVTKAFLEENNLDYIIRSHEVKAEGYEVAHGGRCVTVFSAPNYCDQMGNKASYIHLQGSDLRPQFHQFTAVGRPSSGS

[5] = biological target: Heat shock protein HSP 90-alpha (Homo sapiens, UniProt P07900); type: functional, organism-based
[6] = tested on: INS1; experiment: beta cell apoptosis inhibitors, cytokine rescue, dose response, luminescence, retest (AID 449756); type: functional, cell-based; settings: Rattus norvegicus;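 also: cell death triggered by IL-1 beta plus TNF-alpha plus IFN-gamma mixture; protective hits raise ATP signal compared with cytokine alone wells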
[7] = tested on: Vero; experiment: cells; type: functional; settings: Chlorocebus sabaeus
[8] = biological target: Melanocortin receptor 4 (Homo sapiens, UniProt P32245); experiment: MC4R antagonist potency on cAMP, dose response, cell-based, TR-FRET, biased antagonists (AID 602298); type: functional;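 also: antagonist potency against agonist-stimulated cAMP production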
Sequence of Melanocortin receptor 4 (P32245 whole entry): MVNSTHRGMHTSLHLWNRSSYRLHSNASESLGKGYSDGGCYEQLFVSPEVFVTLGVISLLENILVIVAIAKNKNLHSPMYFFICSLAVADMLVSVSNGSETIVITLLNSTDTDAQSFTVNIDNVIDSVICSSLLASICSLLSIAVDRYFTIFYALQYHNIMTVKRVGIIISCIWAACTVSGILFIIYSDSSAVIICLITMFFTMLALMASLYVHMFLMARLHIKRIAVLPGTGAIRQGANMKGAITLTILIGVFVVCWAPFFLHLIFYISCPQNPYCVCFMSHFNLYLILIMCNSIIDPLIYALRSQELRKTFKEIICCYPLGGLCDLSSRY

[9] = nonselective inhibitors of cellular cAMP signaling, dose response, counter-screen for MC4R biased antagonist project, cell-based, TR-FRET cAMP detection (AID 602305); type: functional;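 also: U2OS cells stimulated with forskolin near its EC80 as the cAMP inducer; potency is for inhibition of forskolin-stimulated cAMP signaling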
[10] = biological target: T1, Protein skinhead-1 (Caenorhabditis elegans, UniProt P34707); type: functional
T1 sequence (P34707 whole entry): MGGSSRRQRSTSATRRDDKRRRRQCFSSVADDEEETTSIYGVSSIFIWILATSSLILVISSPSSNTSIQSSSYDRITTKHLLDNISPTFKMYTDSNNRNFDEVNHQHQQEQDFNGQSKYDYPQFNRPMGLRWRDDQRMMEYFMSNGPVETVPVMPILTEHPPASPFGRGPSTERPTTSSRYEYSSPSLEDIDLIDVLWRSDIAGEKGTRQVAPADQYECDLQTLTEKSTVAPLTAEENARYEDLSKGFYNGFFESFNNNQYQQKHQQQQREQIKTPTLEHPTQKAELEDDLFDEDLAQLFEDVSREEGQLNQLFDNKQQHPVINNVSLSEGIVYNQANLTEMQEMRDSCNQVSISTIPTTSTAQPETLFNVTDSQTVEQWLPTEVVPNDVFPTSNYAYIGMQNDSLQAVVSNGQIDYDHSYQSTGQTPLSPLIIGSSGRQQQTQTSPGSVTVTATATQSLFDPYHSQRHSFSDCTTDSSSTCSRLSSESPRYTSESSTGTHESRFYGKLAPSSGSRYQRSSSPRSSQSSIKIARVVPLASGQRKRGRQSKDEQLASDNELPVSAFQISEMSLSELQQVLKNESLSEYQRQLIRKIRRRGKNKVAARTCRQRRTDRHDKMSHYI

[11] = tested on: Streptococcus sp. 'group A'; experiment: growth inhibition of control SK(-) GAS strain, dose response, counter-screen for streptokinase expression inhibitor project, luminescence, kanamycin, BacTiterGlo, confirmation (AID 1900); type: functional, organism-based
[12] = tested on: Streptococcus; experiment: Luminescence Microorganism-Based Dose Response Follow up to Identify Compounds Cytotoxic to Streptococcus. [Related pubchem assays: 1677 (Project Summary), 1915, 1914, 1902 (Retest at Dose), 1900 (Counter Screen), 1662 (Primary HTS)]; type: functional, organism-based
[13] = biological target: T2, Streptokinase A (Streptococcus pyogenes serotype M1, UniProt P10520); experiment: S. pyogenes streptokinase expression inhibitors, potency, dose response, plasminogen activation absorbance, OD405 (AID 1914); type: functional, Streptococcus pyogenes M1 GAS;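 also: secreted streptokinase activity via plasminogen activation per viability signal from cell pellet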
T2 sequence (P10520 whole entry): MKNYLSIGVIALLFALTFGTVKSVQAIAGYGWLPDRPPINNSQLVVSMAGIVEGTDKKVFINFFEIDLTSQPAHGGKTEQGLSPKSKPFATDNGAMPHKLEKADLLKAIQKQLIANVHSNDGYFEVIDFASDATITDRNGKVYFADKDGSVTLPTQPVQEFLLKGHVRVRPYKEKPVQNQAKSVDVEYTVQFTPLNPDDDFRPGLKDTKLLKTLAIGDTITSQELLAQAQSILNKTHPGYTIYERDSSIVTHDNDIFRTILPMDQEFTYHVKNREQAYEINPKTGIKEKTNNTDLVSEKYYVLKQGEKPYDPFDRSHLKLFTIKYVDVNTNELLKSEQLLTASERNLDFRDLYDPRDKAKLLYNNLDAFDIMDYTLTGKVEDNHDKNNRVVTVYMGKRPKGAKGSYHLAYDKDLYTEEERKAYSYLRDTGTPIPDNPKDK

[14] = tested on: Streptococcus; experiment: Group A Streptococcus viability loss, dose response, counter-screen for streptokinase expression inhibitor project, luminescence, BacTiterGlo (AID 1915); type: functional, organism-based;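 also: potency for reduction of bacterial viability or growth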
[15] = biological target: T3, Neuropeptide Y receptor type 2 (Homo sapiens, UniProt P49146); experiment: Fluorescence-based counterscreen for agonists of NPY-Y1: cell-based high-throughput dose response assay for agonists of NPY-Y2.; type: functional
T3 sequence (P49146 whole entry): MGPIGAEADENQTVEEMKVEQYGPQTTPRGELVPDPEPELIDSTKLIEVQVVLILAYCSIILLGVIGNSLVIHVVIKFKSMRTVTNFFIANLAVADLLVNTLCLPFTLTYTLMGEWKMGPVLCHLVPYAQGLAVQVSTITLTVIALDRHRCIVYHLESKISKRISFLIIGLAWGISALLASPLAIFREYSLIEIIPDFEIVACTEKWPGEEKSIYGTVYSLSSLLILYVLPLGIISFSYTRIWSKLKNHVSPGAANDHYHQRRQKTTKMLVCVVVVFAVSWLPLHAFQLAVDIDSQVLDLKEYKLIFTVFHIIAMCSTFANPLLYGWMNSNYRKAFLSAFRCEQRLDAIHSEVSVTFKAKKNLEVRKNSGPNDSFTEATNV

[16] = tested on: HEK293; experiment: Fluorescence-based counterscreen for potentiators or agonists of NPY-Y1: cell-based high-throughput dose response assay for inhibitors of cyclic nucleotide gated ion channel (CNGC) activity. In this assay, the parental HEK293 cell line transfected with a cyclic-nucleotide gated ion channel (CNGC)-based cAMP sensor is used to measure inhibition of isoproterenol-induced CNGC …; type: functional; settings: Homo sapiens
[17] = biological target: T4, Neuropeptide Y receptor type 1 (Homo sapiens, UniProt P25929); experiment: Fluorescence-based dose response cell-based high-throughput screening assay for agonists of NPY-Y1. [Related pubchem assays: 1697 (Screening assay (NPY-Y1 agonists).), 1359 (Screening assay (NPY-Y2 potentiators or agonists).), 1304 (Screening assay (NPY-Y1 potentiators or agonists).), 1704 (Screening assay (CNGC inhibitors).), 1791 (Summary AID.)]; type: functional
T4 sequence (P25929 whole entry): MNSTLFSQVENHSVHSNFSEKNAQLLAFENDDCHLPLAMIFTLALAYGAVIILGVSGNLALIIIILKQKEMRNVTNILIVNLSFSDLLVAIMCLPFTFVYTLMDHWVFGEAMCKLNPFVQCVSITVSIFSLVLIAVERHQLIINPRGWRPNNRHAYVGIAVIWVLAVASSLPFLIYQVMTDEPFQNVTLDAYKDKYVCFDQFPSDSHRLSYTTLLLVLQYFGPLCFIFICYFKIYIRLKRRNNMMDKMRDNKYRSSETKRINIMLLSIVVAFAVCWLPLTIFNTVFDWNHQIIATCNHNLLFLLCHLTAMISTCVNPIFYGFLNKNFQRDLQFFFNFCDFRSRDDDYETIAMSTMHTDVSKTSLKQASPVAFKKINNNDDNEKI

[18] = biological target: Metabotropic glutamate receptor 4 (Rattus norvegicus, UniProt P31423); experiment: Modulation of the Metabotropic Glutamate Receptor mGluR4: Rat PAM Potency. [Related pubchem assays (depositor defined):AID2437, AID2807]; type: functional
Sequence of Metabotropic glutamate receptor 4 (P31423 whole entry): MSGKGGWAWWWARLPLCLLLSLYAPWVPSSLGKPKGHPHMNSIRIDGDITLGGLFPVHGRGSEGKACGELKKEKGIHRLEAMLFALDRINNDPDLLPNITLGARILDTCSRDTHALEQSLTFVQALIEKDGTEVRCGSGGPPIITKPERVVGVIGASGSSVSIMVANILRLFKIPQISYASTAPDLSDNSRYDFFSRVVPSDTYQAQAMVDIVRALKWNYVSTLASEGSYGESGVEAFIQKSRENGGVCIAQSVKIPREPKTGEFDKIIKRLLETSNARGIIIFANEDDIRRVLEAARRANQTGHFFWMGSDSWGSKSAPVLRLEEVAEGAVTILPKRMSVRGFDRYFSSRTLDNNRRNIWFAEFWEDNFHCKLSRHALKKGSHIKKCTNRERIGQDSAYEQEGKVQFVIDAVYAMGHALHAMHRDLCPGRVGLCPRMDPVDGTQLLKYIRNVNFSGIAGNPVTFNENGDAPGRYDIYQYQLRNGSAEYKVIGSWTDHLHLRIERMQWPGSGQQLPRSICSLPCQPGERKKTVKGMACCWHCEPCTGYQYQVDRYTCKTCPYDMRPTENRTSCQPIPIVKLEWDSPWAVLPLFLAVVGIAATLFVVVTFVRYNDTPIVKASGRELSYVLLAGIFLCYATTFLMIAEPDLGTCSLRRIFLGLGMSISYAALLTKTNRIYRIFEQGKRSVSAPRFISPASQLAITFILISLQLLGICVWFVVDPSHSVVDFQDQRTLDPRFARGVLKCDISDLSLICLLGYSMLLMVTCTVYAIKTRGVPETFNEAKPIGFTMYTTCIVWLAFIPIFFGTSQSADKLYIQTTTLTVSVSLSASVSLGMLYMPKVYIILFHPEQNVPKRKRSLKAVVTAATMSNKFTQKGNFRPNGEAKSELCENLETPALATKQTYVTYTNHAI

[19] = biological target: Scavenger receptor class B member 1 (Mus musculus, UniProt Q61009); experiment: inhibitors of SR-BI mediated HDL lipid uptake, dose response, ldlA[mSR-BI] cells, fluorescence, cherry pick (AID 493194); type: functional, cell-based;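 also: cellular uptake of fluorescent DiI-labeled HDL measured as cell fluorescence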
Sequence of Scavenger receptor class B member 1 (Q61009 whole entry): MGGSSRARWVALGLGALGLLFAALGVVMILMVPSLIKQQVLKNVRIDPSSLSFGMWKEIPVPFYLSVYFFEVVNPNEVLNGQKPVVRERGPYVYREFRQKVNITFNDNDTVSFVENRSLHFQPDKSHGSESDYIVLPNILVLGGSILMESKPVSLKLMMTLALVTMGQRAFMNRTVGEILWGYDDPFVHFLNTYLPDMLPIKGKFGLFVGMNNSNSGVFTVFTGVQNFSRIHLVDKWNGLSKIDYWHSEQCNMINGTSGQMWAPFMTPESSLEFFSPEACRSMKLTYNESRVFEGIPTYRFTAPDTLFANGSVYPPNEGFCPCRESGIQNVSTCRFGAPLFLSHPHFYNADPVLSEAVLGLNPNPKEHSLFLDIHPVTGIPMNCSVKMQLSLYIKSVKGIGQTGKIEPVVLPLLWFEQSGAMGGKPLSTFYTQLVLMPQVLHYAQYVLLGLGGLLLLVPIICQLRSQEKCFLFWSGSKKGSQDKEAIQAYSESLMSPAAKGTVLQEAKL

Sequence of Bcl-2-like protein 10 (Q9HD36 whole entry): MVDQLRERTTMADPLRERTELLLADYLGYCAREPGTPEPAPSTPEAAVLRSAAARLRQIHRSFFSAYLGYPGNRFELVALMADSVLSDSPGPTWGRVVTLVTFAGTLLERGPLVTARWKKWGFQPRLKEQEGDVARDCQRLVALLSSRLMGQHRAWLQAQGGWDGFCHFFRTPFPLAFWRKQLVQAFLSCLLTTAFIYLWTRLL

Q: With C=CCSc1nnc2nc3c(nn12)c1cc(C)ccc1n3CC=C as the compound, how does the IC50 [1] read?
A: > 100 µM (inactive)

Q: For CC1=NOC(=O)/C1=C/c1ccc(-c2ccc(Cl)cc2)o1, which IC50 [2] is on record?
A: 6.86 µM (active)

Q: What about the CC50 [3] of the same compound?
A: > 40 µM (active)

Q: What about the IC50 [4] of the same compound?
A: > 67 µM (not active)

Q: What about the AC50 [5] of the same compound?
A: 2.08 µM (active)

Q: What about the AC50 [6] of the same compound?
A: 6.76 µM (active)

Q: And the CC50 [7]?
A: > 25 µM (active)

Q: What about the IC50 [8] of the same compound?
A: 8.05 µM (active)

Q: And the IC50 [9]?
A: 13.4 µM (inactive)

Q: What about the IC50 [10] of the same compound?
A: 62.2 µM (inactive)

Q: With O=[N+]([O-])c1ccc(Nc2nc(NCCO)nc(N3CCCC3)n2)cc1 as the compound, how does the EC50 [11] read?
A: 6.68 µM (active)

Q: And the EC50 [12]?
A: 54.3 µM (active)

Q: And the EC50 [13]?
A: 7.48 µM (active)

Q: And the EC50 [14]?
A: > 150 µM (not active)

Q: What does the source list for OC(CNC1Cc2ccccc2C1)COc1ccc(Cl)cc1 (centres undefined)?
A: EC50 [15]: > 35.4 µM (not active); IC50 [16]: > 3.94 µM (active); EC50 [17]: 11.6 µM (not active)

Q: Which EC50 [18] does the source give for O=C(Nc1ccc(NC(=O)c2ccccc2Cl)c(Cl)c1)c1ccccn1 here?
A: 0.75 µM (active)

Q: Which AC50 [19] does the source give for COc1cc(OC)cc(C(=O)Nc2cccc(NC(=O)c3cc(OC)cc(OC)c3)n2)c1 here?
A: 45.9 µM (active)

Source: ChEMBL document CHEMBL1201862, “PubChem BioAssay data set” (2004)
